Earlier results on one molecule are cited in US20170001952A1, “FUMARATE COMPOUNDS, PHARMACEUTICAL COMPOSITIONS THEREOF, AND METHODS OF USE” (priority 2015, published 2017).

`COC(=O)/C=C/C(=O)OC` [DMF, dimethylfumarate]: the aqueous solubility result is given as “poor aqueous solubility”.
